Here are results for two molecules from paper PMC9283466, “In silico identification of two peptides with antibacterial activity against multidrug-resistant Staphylococcus aureus” (NPJ Biofilms and Microbiomes, 2022).

Molecules are shown by their SMILES. Values after ≈ are worked out from the molar mass of the structure shown. Bridge positions count the residues as written; N and C are the ends. Peptide text beside a SMILES is read from it.

One data set has as its system G. mellonella larvae. Also on record: species or system Galleria mellonella. As to conditions: in vivo. The method, then: (§1) All procedures of larvae rearing, injection and G. mellonella killing assays were conducted using validated methods. In each assay, ten larvae weighing between 280–300 mg each were randomly selected. Larvae with the previous melanisation of the cuticle were excluded from the experiments. All experiments were designed in at least four experimental and biological replicates.
Firstly, we evaluated the putative toxic effect of the peptides HG2 and HG4 in G. mellonella. […] After injection with peptides, the larvae were maintained at 37 °C in the dark. Phenotypic aspects such as melanisation and mobility of the larvae as well as survival were monitored every 24 for 96 h. Larvae not inoculated with AMPs were used as controls.

The next data set deals with A. baumannii 515785. The experiment in a line: microbe, parasite or virus in culture. The note with it: 515785. Format: cell-based, Acinetobacter baumannii. The procedure:
(§2) To determine the antimicrobial activity of the new antimicrobial peptides, HG2 and HG4, their minimum inhibitory concentrations (MICs) were determined by broth microdilution method[51] in cation adjusted Mueller Hinton broth (MHB) following the International Organisation for Standardisation (ISO) 20776-1 standard for MIC testing using a final bacterial inoculum of 5 × 10^5 CFU/ml[52]. […] The peptides dissolved in sterile distilled water were added to bacteria culture and incubated overnight at appropriate conditions. The MICs of the peptides and comparator antibiotics were recorded after 18–24 h. The minimum bactericidal concentrations (MBCs) were also determined and were taken as the lowest concentration of the antimicrobial that prevented the growth of bacterial cells after the subculture of cells (from MIC treatment) onto antibiotic-free media.

Another data set concerns A. baumannii 515722. In words: microbe, parasite or virus in culture. Format: cell-based, Acinetobacter baumannii. The note with it: 515722. The method, then: as §2
The test system of the next data set is S. aureus EMRSA-15. In words: microbe, parasite or virus in culture. The note with it: EMRSA-15. The format is cell-based, Staphylococcus aureus. The procedure: as §2
In data set [1] the test system is S. aureus USA300 BAA-1717. In words: microbe, parasite or virus in culture. The format is cell-based, Staphylococcus aureus. As to conditions: USA300. The method, then:
as §2

Another data set has as its system S. aureus ATCC 33591. In words: microbe, parasite or virus in culture. Format: cell-based, Staphylococcus aureus. As to conditions: ATCC 33591. The method, then:
as §2

The subject of data set [2] is eLUCidate Raw 264.7 NF-kB reporter cell line.
Data set [3] relates to S. aureus MRSA USA300 cells. The experiment in a line: Transcriptomic analysis (RNA-Seq, DESeq2). Format: cell-based, Staphylococcus aureus. As to conditions: MIC concentration for 60 min; p <0.05, abs(log2FC)> 2. The method, then:
The mechanism of action and effects of HG2 and HG4 against S. aureus MRSA USA300 was investigated using transcriptomics analysis[57],[58]. […] The increased sample volume and limited treatment time of 60 min served to maintain the quality and yield of RNA. Untreated cells served as control. Cells were washed and resuspended in PBS and then RNAprotect Bacteria Reagent (QIAGEN, Hilden, Germany) was added and pelleted. This was followed by incubation in Tris-EDTA buffer containing Proteinase K and Bacterial Lysis Mix (Mutanolysin and Lysozyme) at room temperature for 10 min addition. Thereafter, RNA extraction was performed using the Qiagen RNeasy Plus Mini Kit following the manufacturer’s protocol (Qiagen, Manchester, UK). RNA was quantified using a Qubit™ fluorometer with a broad range RNA kit (Invitrogen, USA), according to the manufacturer’s instructions. All experiments were carried out in triplicates. […]
Analysis of sequencing data was carried out using the Geneious Prime® (2021.1.1) software (Biomatters Ltd, New Zealand)[59]. Firstly, all raw paired-end fastq reads passing quality check by FastQC v0.11.9 were mapped to the reference genome (Staphylococcus aureus subsp. aureus USA300_TCH1516 downloaded from the NCBI website), using Geneious RNA-Seq mapper. […]

Data set [4] relates to MRSA USA300 infection in G. mellonella. In words: In vivo efficacy, G. mellonella MRSA USA300 infection model. Also on record: species or system Galleria mellonella. The note with it: MRSA USA300 LD; for survival rate higher than the control group: peptides at 1x MIC; for increase in survival versus untreated control group / survival rate: peptides at 3x MIC. The procedure: as §1
To determine the LD50 and LD of S. aureus MRSA USA300 in G. mellonella, an inoculum of 10 µl of MRSA USA300 suspension in PBS 1X (10^3 to 10^6 CFU/larvae) was injected into the larvae haemocoel using insulin syringes (Becton Dickinson, USA). Larvae inoculated with PBS and larvae not inoculated were used as negative controls.
The efficacy of the peptides HG2 and HG4 to control MRSA USA300 infection in vivo, was evaluated following the protocol by ref. [43]. The groups of G. mellonella larvae were infected with the predetermined lethal dose of MRSA USA300. After 30 min of the larvae injection with the bacteria, the peptides were injected at 1x MIC and 3x MIC concentrations respectively. Larvae injected with PBS solution, and HG2 or HG4 peptide solution (1x MIC or 3x MIC) alone were used as negative controls. Injected larvae were maintained at 37 °C in the dark and their survival was monitored and analyzed as above.

For `CC[C@H](C)[C@H](NC(=O)[C@H](CC(C)C)NC(=O)[C@H](CC(C)C)NC(=O)[C@H](CC(C)C)NC(=O)[C@H](CCCCN)NC(=O)[C@H](CCCCN)NC(=O)[C@@H](N)CCSC)C(=O)N[C@@H](CC(C)C)C(=O)N[C@@H](Cc1ccccc1)C(=O)N[C@H]1CSSC[C@@H](C(=O)N[C@@H](CCCCN)C(=O)N[C@@H](CCCCN)C(=O)N[C@@H](C)C(=O)N2CCC[C@H]2C(N)=O)NC(=O)CNC(=O)[C@H](C)NC(=O)[C@H](CC(C)C)NC(=O)[C@H](C)NC(=O)[C@H](CC(C)C)NC(=O)[C@H](C)NC(=O)[C@H](CC(C)C)NC1=O` [HG2] (H-MKKLLLILFCLALALAGCKKAP-NH2; disulfide 10-18; N-terminus assumed), in the data set on G. mellonella larvae, the “larvae survival rate, uninfected larvae” value was determined as 100%. In the data set with G. mellonella larvae, the “toxic effect in G. mellonella” value is reported as “no toxic effect”. The MIC is 256 µg/mL (≈ 109 µM) against A. baumannii 515785; 16 µg/mL (≈ 6.79 µM) in the data set on A. baumannii 515722; 32 µg/mL (≈ 13.6 µM) against S. aureus EMRSA-15; 16 µg/mL (≈ 6.79 µM) in data set [1]; 64 µg/mL (≈ 27.2 µM) with S. aureus ATCC 33591. Besides, the “toxicity against reporter cell line (resazurin assay)” value in data set [2] was “no toxicity”. In addition, in data set [3], the “number of differentially expressed genes (DEGs)” value worked out at 114. Besides, the “survival rate higher than the control group” value in data set [4] is on record as ~ 20%. The “increase in survival versus untreated control group” value in data set [4] is on record as 4.6 fold. The molecule also gave a survival rate in data set [4] of 78%.

Turning to `CC[C@H](C)[C@H](NC(=O)[C@H](CC(C)C)NC(=O)[C@H](CC(C)C)NC(=O)[C@H](C)NC(=O)CNC(=O)CNC(=O)[C@@H](NC(=O)[C@@H](NC(=O)[C@H](CC(C)C)NC(=O)[C@H](C)NC(=O)[C@H](CC(C)C)NC(=O)CNC(=O)[C@H](CC(C)C)NC(=O)[C@@H](N)C(C)C)[C@@H](C)CC)C(C)C)C(=O)N[C@@H](CCCCN)C(=O)N[C@@H](CCCCN)C(=O)N[C@@H](CCCCN)C(=O)N[C@@H](CCC(N)=O)C(=O)N[C@@H](C)C(=O)N[C@@H](CCCCN)C(=O)N[C@@H](CO)C(N)=O` [HG4] (H-VLGLALIVGGALLIKKKQAKS-NH2; N-terminus and C-terminus assumed), the “larvae survival rate, uninfected larvae” value with G. mellonella larvae came out at 100%. Moreover, the “toxic effect in G. mellonella” value with G. mellonella larvae is reported as “no toxic effect”. Also, the MIC in the data set on A. baumannii 515785 was 128 µg/mL (≈ 60.4 µM); in the data set on A. baumannii 515722 it was 32 µg/mL (≈ 15.1 µM); in the data set with S. aureus EMRSA-15 it was 32 µg/mL (≈ 15.1 µM); in [1], 32 µg/mL (≈ 15.1 µM); in the data set on S. aureus ATCC 33591, 32 µg/mL (≈ 15.1 µM). In addition, the “toxicity against reporter cell line (resazurin assay)” value in data set [2] is “no toxicity”. In addition, the “number of differentially expressed genes (DEGs)” value in [3] was found to be 123. Also, the “survival rate higher than the control group” value in data set [4] is listed as ~ 20%. Besides, the “increase in survival versus untreated control group” value in [4] was determined as 4.4 fold. The same molecule had a survival rate in data set [4] of 75%.
